Results taken from paper PMC10133546, “Simultaneous determination of multiple components in rat plasma by UHPLC-sMRM for pharmacokinetic studies after oral administration of Qingjin Yiqi Granules” (Frontiers in Pharmacology, 2023).

What was measured:
[1] = Stability of the working solution (4°C for 1 month); format: physicochemical
[2] = Stability of analytes in rat plasma (auto-sampler, freeze-thaw, room temperature, long-term); conditions: for Autosampler for 24 h Accuracy (%): autosampler 24 h; for Room temperature for 24 h Accuracy (%): room temperature 24 h; for Freeze thaw cycles Accuracy (%): three freeze-thaw cycles; for −80°C for 1month Accuracy (%): −80°C 1 month
[3] = Pharmacokinetic study in rat plasma after oral administration of QJYQ (UHPLC-sMRM); format: in vivo, Sprague-Dawley rats
Procedure: Exion LC AD tandem Blueline 3500 triple quadrupole mass spectrometer (AB SCIEX, Framingham, MA, United States) was used to thirty-three compounds in rat plasma. […] The whole detailed parameters of sMRM were obtained in Supplementary Table S1.
Rat plasma (100 μL) was mixed with 10% formic acid (10 μL) and vortexed for 1 min at room temperature. ISs (10 μL) and methanol/acetonitrile (1/1, v/v) (400 μL) were added and vortexed for 5 min, then centrifuged for 10 min at 14,000 rpm and 4°C. The transported supernatant was condensed to dryness under the flow of nitrogen gas. The dried residue was reconstituted with 70% methanol (100 μL) by vortex-mixing for 5 min and centrifuging at 14,000 rpm for 10 min. Last, 2 μL of the solution were injected into the UHPLC-sMRM system.
The pharmacokinetic study was approved by the Animal Ethics Committee of Tianjin University of Traditional Chinese Medicine (TCM-LAEC2021228). Ten male Sprague-Dawley rats (weight 220–240 g) was kept at the animal center of Tianjin University of Traditional Chinese Medicine (Tianjin, China). […] The sample was transferred right away following a 10 min period of centrifugation at 7000 rpm and 4°C. All plasma samples were frozen and stored at −80°C.
All the pharmacokinetic parameters were calculated using the DAS 1.0 software (Drug and Statistics 1.0, Medical College of Wannan, China). Pharmacokinetic parameters include the maximum drug concentration in plasma (Cmax), the time to achieve maximum drug concentration (Tmax), the area under the plasma concentration-time curve (AUC), elimination half-life (T1/2), and mean residence time (MRT). The pharmacokinetic parameters were computed using the non-compartmental model. All data are expressed as mean ± standard deviation (SD). GraphPad Prism 8.0 (GraphPad Software Inc., La Jolla, CA, United States) software was used to draw the drug-time curve.

Structure (SMILES)	Working solution Accuracy (%) ([1]; 1.56 ng/mL)	Working solution Accuracy (%) ([1]; 12.5 ng/mL)	Working solution Accuracy (%) ([1]; 100 ng/mL)	Working solution Accuracy (%) ([1]; 500 ng/mL)	Room temperature for 24 h Accuracy (%) ([2]; 1.56 ng/mL)	Freeze thaw cycles Accuracy (%) ([2]; 1.56 ng/mL)	−80°C for 1month Accuracy (%) ([2]; 1.56 ng/mL)	Autosampler for 24 h Accuracy (%) ([2]; 12.5 ng/mL)	Room temperature for 24 h Accuracy (%) ([2]; 12.5 ng/mL)	Freeze thaw cycles Accuracy (%) ([2]; 12.5 ng/mL)	−80°C for 1month Accuracy (%) ([2]; 12.5 ng/mL)	Autosampler for 24 h Accuracy (%) ([2]; 100 ng/mL)	Room temperature for 24 h Accuracy (%) ([2]; 100 ng/mL)	Freeze thaw cycles Accuracy (%) ([2]; 100 ng/mL)	−80°C for 1month Accuracy (%) ([2]; 100 ng/mL)	Autosampler for 24 h Accuracy (%) ([2]; 500 ng/mL)	Room temperature for 24 h Accuracy (%) ([2]; 500 ng/mL)	Freeze thaw cycles Accuracy (%) ([2]; 500 ng/mL)	−80°C for 1month Accuracy (%) ([2]; 500 ng/mL)	−80°C for 1month Accuracy (%) ([2]; 50 ng/mL)	other results
O=C(O)[C@H]1O[C@@H](Oc2cc(O)c3c(=O)cc(-c4ccc(O)cc4)oc3c2)[C@H](O)[C@@H](O)[C@@H]1O [apigenin-7-O-glucuronide]	83.6%	112.0%	88.5%	93.2%	114.0%	109.0%	104.0%	93.2%	92.2%	85.6%	86.0%	94.1%	90.4%	86.4%	85.0%	85.5%	104.0%	88.3%	108.0%	–	Autosampler for 24 h Accuracy (%) ([2]; 1.56 ng/mL): 103.0%; AUC(0-t) ([3]; rat, in vivo, po, 3.15 g/kg): 14603.11 ± 7523.95 ng·h/mL; AUC(0-∞) ([3]; rat, in vivo, po, 3.15 g/kg): 15028.42 ± 7667.50 ng·h/mL; Cmax ([3]; rat, in vivo, po, 3.15 g/kg): 167.50 ± 108.49 ng/mL; MRT ([3]; rat, in vivo, po, 3.15 g/kg): greater than 8 h; MRT (0-∞) ([3]; rat, in vivo, po, 3.15 g/kg): 8.62 ± 1.65 h; MRT(0-t) ([3]; rat, in vivo, po, 3.15 g/kg): 8.39 ± 1.62 h; T1/2 ([3]; rat, in vivo, po, 3.15 g/kg): 4.17 ± 1.51 h; Tmax ([3]; rat, in vivo, po, 3.15 g/kg): 4.65 ± 2.79 h
O=C(/C=C/c1ccc(O)c(O)c1)O[C@@H]1C[C@](O)(C(=O)O)C[C@@H](O)[C@H]1O [chlorogenic acid]	–	–	–	–	–	–	–	94.6%	97.3%	100.0%	98.3%	96.9%	105.0%	95.5%	–	85.5%	94.3%	96.9%	94.3%	115.0%	Autosampler for 24 h Accuracy (%) ([2]; 50 ng/mL): 97.5%; Room temperature for 24 h Accuracy (%) ([2]; 50 ng/mL): 106.0%; detection in rat plasma ([3]; rat plasma after oral QJYQ 3.15 g/kg): not detected
O=C1C[C@@H](c2ccc(O)cc2)Oc2cc(O)cc(O)c21 [naringenin]	–	93.5%	85.6%	98.2%	–	–	–	–	94.4%	97.6%	85.7%	99.5%	92.9%	–	97.4%	107.0%	95.2%	–	94.2%	98.2%	Working solution Accuracy (%) ([1]; 50 ng/mL): 102.0%; Autosampler for 24 h Accuracy (%) ([2]; 50 ng/mL): 98.3%
COc1ccc(-c2coc3cc(O[C@@H]4O[C@H](CO)[C@@H](O)[C@H](O)[C@H]4O)ccc3c2=O)cc1 [ononin]	84.3%	87.5%	104.0%	91.3%	98.6%	95.6%	111.0%	95.3%	109.0%	108.0%	92.2%	94.4%	86.9%	99.0%	–	104.0%	93.2%	–	98.2%	–	–
C[C@@]12C[C@@]3(O)O[C@@H](O1)[C@]1(COC(=O)c4ccccc4)[C@H]3C[C@@]12O[C@@H]1O[C@H](CO)[C@@H](O)[C@H](O)[C@H]1O [paeoniflorin]	–	106.0%	–	93.2%	–	–	–	86.8%	106.0%	97.6%	97.6%	111.0%	86.8%	93.4%	95.2%	92.0%	92.2%	93.1%	95.3%	96.4%	Autosampler for 24 h Accuracy (%) ([2]; 50 ng/mL): 97.6%; Room temperature for 24 h Accuracy (%) ([2]; 50 ng/mL): 106.0%; Freeze thaw cycles Accuracy (%) ([2]; 50 ng/mL): 94.1%
C[C@@H]1O[C@@H](Oc2c(-c3ccc(O)c(O)c3)oc3cc(O)cc(O)c3c2=O)[C@H](O)[C@H](O)[C@H]1O [quercitrin]	92.6%	–	90.4%	99.1%	85.2%	86.2%	86.7%	94.7%	87.1%	90.0%	97.1%	98.3%	99.6%	100.0%	95.6%	108.0%	98.0%	89.3%	96.0%	–	Autosampler for 24 h Accuracy (%) ([2]; 1.56 ng/mL): 95.2%
O=C(O)[C@H]1O[C@@H](Oc2cc3oc(-c4ccc(O)cc4)cc(=O)c3c(O)c2O)[C@H](O)[C@@H](O)[C@@H]1O [scutellarin]	–	–	108.0%	100.0%	–	–	–	–	–	–	–	109.0%	101.0%	111.0%	101.0%	101.0%	105.0%	112.0%	103.0%	92.2%	Working solution Accuracy (%) ([1]; 50 ng/mL): 97.2%; Working solution Accuracy (%) ([1]; 200 ng/mL): 99.4%; Room temperature for 24 h Accuracy (%) ([2]; 50 ng/mL): 91.2%; Autosampler for 24 h Accuracy (%) ([2]; 200 ng/mL): 94.7%; Room temperature for 24 h Accuracy (%) ([2]; 200 ng/mL): 90.6%; Freeze thaw cycles Accuracy (%) ([2]; 200 ng/mL): 85.4%; −80°C for 1month Accuracy (%) ([2]; 200 ng/mL): 90.4%
COc1cc(/C=C/C(=O)O)cc(OC)c1O [sinapic acid]	100.0%	90.2%	94.2%	87.0%	–	–	–	–	–	–	–	–	–	–	–	–	–	–	–	–	AUC(0-t) ([3]; rat, in vivo, po, 3.15 g/kg): 86.98 ± 6.62 ng·h/mL; AUC(0-∞) ([3]; rat, in vivo, po, 3.15 g/kg): 86.99 ± 6.62 ng·h/mL; Cmax ([3]; rat, in vivo, po, 3.15 g/kg): 26.77 ± 7.87 ng/mL; MRT (0-∞) ([3]; rat, in vivo, po, 3.15 g/kg): 6.28 ± 0.91 h; MRT(0-t) ([3]; rat, in vivo, po, 3.15 g/kg): 6.28 ± 0.91 h; T1/2 ([3]; rat, in vivo, po, 3.15 g/kg): 2.20 ± 0.13 h
O=c1cc(-c2ccc(O)cc2)oc2c([C@@H]3O[C@H](CO)[C@@H](O)[C@H](O)[C@H]3O)c(O)cc(O)c12 [vitexin]	95.6%	88.3%	89.9%	106.0%	92.0%	103.0%	90.4%	93.5%	105.0%	92.0%	106.0%	93.2%	88.3%	85.5%	93.2%	92.4%	107.0%	108.0%	92.6%	–	Autosampler for 24 h Accuracy (%) ([2]; 1.56 ng/mL): 95.0%
